How the values were obtained:
[1] = Form A: among anhydrous polymorphs; Form E: in aqueous solvent systems; cited from earlier work
Beagle dogs = test: Cardiovascular and respiratory function in anesthetized dogs; details: anesthetized Beagle dogs, 2, 10 and 20 mg/kg infusion via jugular vein, all doses
IL-10 = test: LPS-stimulated production of IL-10 by PBMC; format: cell-based
IL-2 = test: Augmentation of IL-2 production following TCR activation of PBMC; format: cell-based
T-cells = test: Stimulation of T-cell proliferation following primary induction by TCR activation; format: cell-based
IFN-γ = test: Augmentation of IFN-γ production following TCR activation of T-cells; format: cell-based

| SMILES | Relative stability of polymorph [1] | Cardiovascular and respiratory changes compared to vehicle control (Beagle dogs) | Effect on production of IL-10 by PBMC (IL-10) | Potency relative to thalidomide in augmenting production of IL-2 (IL-2) | Potency relative to thalidomide in stimulating proliferation of T-cells (T-cells) | Potency relative to thalidomide in augmenting production of IFN-γ (IFN-γ) |
| --- | --- | --- | --- | --- | --- | --- |
| Nc1cccc2c1CN(C1CCC(=O)NC1=O)C2=O (stereo not shown) [Form A, 3-(4-amino-1-oxo-1,3 dihydro-isoindol-2-yl)-piperidene-2,6-dione] | most thermodynamically stable anhydrous polymorph |  |  |  |  |  |
| Nc1cccc2c1CN(C1CCC(=O)NC1=O)C2=O (stereo not shown) [Form E, 3-(4-amino-1-oxo-1,3 dihydro-isoindol-2-yl)-piperidene-2,6-dione] | most stable form |  |  |  |  |  |
| Nc1cccc2c1CN(C1CCC(=O)NC1=O)C2=O (stereo not shown) |  | minimal | increased production | 50-100 times | 50-100 times | 50-100 times |

Reference: patent US20110184025A1, “Methods and Compositions Using Immunomodulatory Compounds for the Treatment and Management of Spirochete and Other Obligate Intracellular Bacterial Diseases” (priority 2006, published 2011)
